Measurements reported in patent US12643871B2, “Aryl formamide compound containing chiral sulfur oxide or salt thereof, preparation method, herbicidal composition and use thereof” (Qingdao Kingagroot Chemical Compound Co., Ltd., priority 2019, dated 2026).

Tests used:
[1] = tested on: Abutilon theophrasti; assay: Weeding effect in post-emergence stage; assay type: in vivo; conditions: 250 g/ha; 2 leaf stage; 15 days after application; fresh weight control rate
How it was run: (§1)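 Post-emergence spray, 2-leaf stage; doses 500–15 g/ha; acetone + Tween 80 + methyl oleate EC (1.5 L/ha) as synergist. Greenhouse 15 d. Readout: fresh weight control rate graded levels 0–5 (5 = above 85%, 0 = below 5%); triplicate means.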

[2] = tested on: Amaranthus retroflexus; assay: Weeding effect in post-emergence stage; assay type: in vivo; conditions: 250 g/ha; 2 leaf stage; 15 days after application; fresh weight control rate
How it was run: as §1

[3] = tested on: Digitaria sanguinalis; assay: Weeding effect in post-emergence stage; assay type: in vivo; conditions: 250 g/ha; 2 leaf stage; 15 days after application; fresh weight control rate
How it was run: as §1

[4] = tested on: Echinochloa crusgali; assay: Weeding effect in post-emergence stage; assay type: in vivo; conditions: 250 g/ha; 2 leaf stage; 15 days after application; fresh weight control rate
How it was run: as §1

[5] = tested on: Setaria viridis; assay: Weeding effect in post-emergence stage; assay type: in vivo; conditions: 250 g/ha; 2 leaf stage; 15 days after application; fresh weight control rate
How it was run: as §1

[6] = tested on: key weeds such as Digitaria sanguinalis, Leptochloa chinensis; assay: Comparison experiment (post-emergence, Tables 4-7), herbicidal activity on weeds not listed separately; assay type: in vivo; conditions: dose of 125, 60, 30, 15 g/ha
How it was run: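 Weeds sown in soil-filled pots, covered with 0.5-2 cm soil and grown in greenhouse; sprayed at 2-leaf stage (2 weeks after sowing) with compound in acetone/Tween 80 plus 1.5 liter/ha methyl oleate concentrate. Doses 500–15 g/ha; fresh weight control rated after 15 days, mean of three repeats.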

[7] = tested on: rice and other crops; assay: Comparison experiment (post-emergence, Tables 4-7), crop safety; assay type: in vivo; conditions: dose of 125, 60, 30, 15 g/ha
How it was run: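 Compounds are applied post-emergence by spray tower to plants at the 2 leaf stage, at rates from 15 to 500 g/ha with a methyl oleate synergist. Control is expressed on fresh weight, counted after 15 days in the greenhouse and averaged across three repetitions.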

[8] = tested on: Echinochloa crusgali; assay: Weed control effect evaluation in rice field; assay type: in vivo; conditions: 60 g/ha; rice field pot, 14 days after treatment; ALS-inhibitor resistant weed from Heilongjiang
Text: (§2) The activity level criteria for harmful plant damage (i.e., growth control rate) are as follows: • Level 5: growth control rate is above 85%; • Level 4: growth control rate is greater than or equal to 60% and less than 85%; • Level 3: growth control rate is greater than or equal to 40% and less than 60%; • Level 2: growth control rate is greater than or equal to 20% and less than 40%; • Level 1: growth control rate is greater than or equal to 5% and less than 20%; • Level 0: growth control rate is less than 5%.
(§3) Rice field soil was loaded into a 1/1,000,000 ha pot. The seeds of Echinochloa crusgali, Scirpus juncoides, Bidens tripartita, Sagittaria trifolia, Monochoria vaginalis and Leptochloa chinensis were sowed and gently covered with soil, then left to stand still in greenhouse in the state of 0.5-1 cm of water storage. The tuber of Sagittaria trifolia was planted in the next day or 2 days later. It was kept at 3-4 cm of water storage thereafter. The weeds were treated by dripping the WP or SC water diluents prepared according to the common preparation method of the compounds of the present invention with pipette homogeneously to achieve specified effective amount when Echinochloa crusgali, Scirpus juncoides, Bidens tripartita, Monochoria vaginalis and Leptochloa chinensis reached 0.5 leaf stage and Sagittaria trifolia reached the time point of primary leaf stage.
(§4) The fertility condition of Echinochloa crusgali, Scirpus juncoides, Bidens tripartita, Leptochloa chinensis, Sagittaria trifolia and Monochoria vaginalis 14 days after the treatment of the compound of the invention and the fertility condition of rice 21 days after the treatment of the compound of the invention respectively with the naked eye. Evaluate the weed control effect with 0-5 activity standard level. Many compounds show excellent activity and selectivity.

[9] = tested on: Leptochloa chinensis; assay: Weed control effect evaluation in rice field; assay type: in vivo; conditions: 60 g/ha; rice field pot, 14 days after treatment
Text: as §2, §3, §4

[10] = tested on: Monochoria vaginalis; assay: Weed control effect evaluation in rice field; assay type: in vivo; conditions: 60 g/ha; rice field pot, 14 days after treatment; ALS-inhibitor resistant weed from Heilongjiang
Text: as §2, §3, §4

[11] = tested on: Sagittaria trifolia; assay: Weed control effect evaluation in rice field; assay type: in vivo; conditions: 60 g/ha; rice field pot, 14 days after treatment; ALS-inhibitor resistant weed from Heilongjiang
Text: as §2, §3, §4

[12] = tested on: Rice; assay: Transplanted rice safety evaluation; assay type: in vivo, rice (japonica rice/Indica rice); conditions: 60 g/ha; transplanted 3 leaf stage rice, 21 days after treatment
Text: as §2
In addition, the rice field soil that loaded into the 1/1,000,000 ha pot was leveled to keep water storage at 3-4 cm depth. The 3 leaf stage rice (japonica rice/Indica rice) was transplanted at 3 cm of transplanting depth the next day. The compound of the present invention was treated by the same way after 5 days of transplantation.
as §4

| Compound | weeding effect in post-emergence stage, activity level (growth control rate), Abutilon theophrasti [1] | weeding effect in post-emergence stage, activity level (growth control rate), Amaranthus retroflexus [2] | weeding effect in post-emergence stage, activity level (growth control rate), Digitaria sanguinalis [3] | weeding effect in post-emergence stage, activity level (growth control rate), Echinochloa crusgali [4] | weeding effect in post-emergence stage, activity level (growth control rate), Setaria viridis [5] | activity to key weeds such as Digitaria sanguinalis, Leptochloa chinensis compared with the corresponding racemate or S configuration [6] | safety to rice and other crops compared with the corresponding racemate or S configuration [7] | Herbicidal effects of compounds, Echinochloa crusgali, 0-5 activity standard level [8] | Herbicidal effects of compounds, Leptochloa chinensis, 0-5 activity standard level [9] | Herbicidal effects of compounds, Monochoria vaginalis, 0-5 activity standard level [10] | Herbicidal effects of compounds, Sagittaria trifolia, 0-5 activity standard level [11] | Herbicidal effects of compounds, Rice, 0-5 activity standard level [12] |
| --- | --- | --- | --- | --- | --- | --- | --- | --- | --- | --- | --- | --- |
| CCCC[S@@+]([O-])c1c(C(F)(F)F)ccc(C(=O)Nc2nnc(C)o2)c1F [Compound 4] | 5 (Level 5: growth control rate is above 85%) | 5 (Level 5: growth control rate is above 85%) | 5 (Level 5: growth control rate is above 85%) | 5 (Level 5: growth control rate is above 85%) | 5 (Level 5: growth control rate is above 85%) | better activity | higher safety | 5 (Level 5: growth control rate is above 85%) | 5 (Level 5: growth control rate is above 85%) | 5 (Level 5: growth control rate is above 85%) | 5 (Level 5: growth control rate is above 85%) | 0 (Level 0: growth control rate is less than 5%) |
| Cc1nnc(NC(=O)c2ccc(C(F)(F)F)c([S@+]([O-])CC(C)C)c2F)o1 [Compound 6] | 5 (Level 5: growth control rate is above 85%) | 5 (Level 5: growth control rate is above 85%) | 5 (Level 5: growth control rate is above 85%) | 5 (Level 5: growth control rate is above 85%) | 5 (Level 5: growth control rate is above 85%) |  |  | 5 (Level 5: growth control rate is above 85%) | 5 (Level 5: growth control rate is above 85%) | 5 (Level 5: growth control rate is above 85%) | 5 (Level 5: growth control rate is above 85%) | 0 (Level 0: growth control rate is less than 5%) |
| Cc1nnc(NC(=O)c2ccc(C(F)(F)F)c([S@+]([O-])CCCF)c2F)o1 [Compound 26] | 5 (Level 5: growth control rate is above 85%) | 5 (Level 5: growth control rate is above 85%) | 5 (Level 5: growth control rate is above 85%) | 5 (Level 5: growth control rate is above 85%) | 5 (Level 5: growth control rate is above 85%) | better activity | higher safety | 5 (Level 5: growth control rate is above 85%) | 5 (Level 5: growth control rate is above 85%) | 5 (Level 5: growth control rate is above 85%) | 5 (Level 5: growth control rate is above 85%) | 0 (Level 0: growth control rate is less than 5%) |
| Cc1nnc(NC(=O)c2ccc(C(F)(F)F)c([S@+]([O-])CCCCl)c2F)o1 [Compound 37] | 5 (Level 5: growth control rate is above 85%) | 5 (Level 5: growth control rate is above 85%) | 5 (Level 5: growth control rate is above 85%) | 5 (Level 5: growth control rate is above 85%) | 5 (Level 5: growth control rate is above 85%) |  |  | 5 (Level 5: growth control rate is above 85%) | 5 (Level 5: growth control rate is above 85%) | 5 (Level 5: growth control rate is above 85%) | 5 (Level 5: growth control rate is above 85%) | 0 (Level 0: growth control rate is less than 5%) |
| Cc1nnc(NC(=O)c2ccc(C(F)(F)F)c([S@+]([O-])C3COC3)c2F)o1 [Compound 79] | 5 (Level 5: growth control rate is above 85%) | 5 (Level 5: growth control rate is above 85%) | 5 (Level 5: growth control rate is above 85%) | 5 (Level 5: growth control rate is above 85%) | 5 (Level 5: growth control rate is above 85%) |  |  | 5 (Level 5: growth control rate is above 85%) | 5 (Level 5: growth control rate is above 85%) | 5 (Level 5: growth control rate is above 85%) | 5 (Level 5: growth control rate is above 85%) | 0 (Level 0: growth control rate is less than 5%) |
